Test results published in BindingDB's records for doi:10.1016/j.bioorg.2014.12.001 (Hazara University, 2015).

Target: Alpha-glucosidase MAL12 (Saccharomyces cerevisiae (strain ATCC 204508 / S288c), UniProt P53341)
Assay: Alpha-glucosidase Assay
Description: Typically, α-glucosidase activity was assayed in 50 mM phosphate buffer (pH 6.8) containing 5% v/v DMSO and PNP glycoside was used as a substrate. The inhibitors were pre-incubated with enzyme at 37 °C for 0.5 h. The substrate was then added and the enzymatic reaction was carried out at 37 °C for 60 min. The reaction was monitored spectrophotometrically by measuring the absorbance at 400 nm.

Sequence of Alpha-glucosidase MAL12 (P53341 whole entry): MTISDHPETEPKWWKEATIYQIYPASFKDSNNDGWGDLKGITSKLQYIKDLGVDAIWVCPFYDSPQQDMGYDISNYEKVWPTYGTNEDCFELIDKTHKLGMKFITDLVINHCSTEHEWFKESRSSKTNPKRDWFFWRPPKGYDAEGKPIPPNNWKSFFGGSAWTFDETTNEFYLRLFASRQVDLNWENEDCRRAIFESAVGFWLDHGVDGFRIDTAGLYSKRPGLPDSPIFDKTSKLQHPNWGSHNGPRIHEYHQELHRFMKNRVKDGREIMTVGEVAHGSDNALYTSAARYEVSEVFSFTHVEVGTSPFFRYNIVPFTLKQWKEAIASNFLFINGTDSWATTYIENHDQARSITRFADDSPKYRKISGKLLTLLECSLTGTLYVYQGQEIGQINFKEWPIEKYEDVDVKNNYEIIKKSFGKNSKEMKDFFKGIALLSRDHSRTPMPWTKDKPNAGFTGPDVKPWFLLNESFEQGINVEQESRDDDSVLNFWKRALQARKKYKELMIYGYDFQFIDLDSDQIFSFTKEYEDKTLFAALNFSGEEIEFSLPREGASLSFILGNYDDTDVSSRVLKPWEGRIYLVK

Row | Structure (SMILES) | IC50
1 | COc1ccccc1C(=O)CSc1nnc2c(n1)[nH]c1ccccc12 [2-(5H-[1,2,4]triazino[5,6-b]indol-3-ylthio)-1-(2-methoxyphenyl)-ethanone (9)] | 51.6 µM
2 | O=C(CSc1nnc2c(n1)[nH]c1ccccc12)c1cccc(Br)c1 [2-(5H-[1,2,4]triazino[5,6-b]indol-3-ylthio)-1-(3-bromophenyl)-ethanone (11)] | 37.1 µM
3 | O=C(CSc1nnc2c(n1)[nH]c1ccccc12)c1cccc(F)c1 [2-(5H-[1,2,4]triazino[5,6-b]indol-3-ylthio)-1-(3-flourophenyl)-ethanone (5)] | 38.1 µM
4 | O=C(CSc1nnc2c(n1)[nH]c1ccccc12)c1cccc(O)c1 [2-(5H-[1,2,4]triazino[5,6-b]indol-3-ylthio)-1-(3-hydroxyphenyl)-ethanone (1)] | 2.46 µM
5 | COc1cccc(C(=O)CSc2nnc3c(n2)[nH]c2ccccc23)c1 [2-(5H-[1,2,4]triazino[5,6-b]indol-3-ylthio)-1-(3-methoxyphenyl)-ethanone (10)] | 313 µM
6 | O=C(CSc1nnc2c(n1)[nH]c1ccccc12)c1ccc(Br)cc1 [2-(5H-[1,2,4]triazino[5,6-b]indol-3-ylthio)-1-(4-bromophenyl)-ethanone (3)] | 37.8 µM
7 | COc1ccc(C(=O)CSc2nnc3c(n2)[nH]c2ccccc23)cc1 [2-(5H-[1,2,4]triazino[5,6-b]indol-3-ylthio)-1-(4-methoxyphenyl)-ethanone (4)] | 28.9 µM
8 | O=C(CSc1nnc2c(n1)[nH]c1ccccc12)c1ccc(-c2ccccc2)cc1 [2-(5H-[1,2,4]triazino[5,6-b]indol-3-ylthio)-1-(biphenyl-4-yl)-ethanone (2)] | 78.4 µM
9 | CC(Sc1nnc2c(n1)[nH]c1ccccc12)C(=O)c1ccccc1 (stereo not given) [2-(5H-[1,2,4]triazino[5,6-b]indol-3-ylthio)-1-phenylpropane-1-one (8)] | 36.9 µM
10 | O=C(CSc1nnc2c(n1)[nH]c1ccccc12)c1cc2ccccc2oc1=O [3-(2-(5H-[1,2,4]triazino[5,6-b]indol-3-ylthio)acetyl)-2H-chromen-2-one (7)] | 37.4 µM
